1 compound from patent publication US9919055B2, “Sugar-linker-drug conjugates” (Arizona Board of Regents on Behalf of Arizona State …, priority 2013, dated 2018) can be followed below.

One assay concerns DU 145(MTX) cells. The experiment in a line: Sensitivity of methotrexate resistant cell line DU 145(MTX) versus parental DU 145 cells. Format: cell-based, human. As for the experimental part: (§1) A methotrexate resistant cell line. DU 145(MTX) was developed from parental DU 145 cells by exposure to increasing concentrations (starting at 0.1 μM) of methotrexate over a period of 6 months. DU 145(MTX) was at least 250-fold less sensitive to methotrexate than parental cells.

In assay [1] the test system is MTX Resistant DU-145 Cells. Briefly: In vitro cell growth inhibition test (MTT assay, cell viability). Format: cell-based, human. The settings on record: 72 h incubation, DU-145-MTX cells. The protocol:
as §1
The human prostate cancer cell lines DU-145 (ATCC) was cultured in MEM media with glutamine and supplemented with 10% fetal bovine serum, penicillin (100 U/mL) and streptomycin ([…]) in air enriched with 5% CO2 at 37° C.
Cell viability was determined using the MTT assay. Briefly, cells were seeded in 96-well plates at a density of 3000 cells per well in 0.1 mL MEM media supplemented with 10% fetal bovine serum, and test compounds were concomitantly added in a concentration range of 0.001-1000 μM. Dilutions were made using the culture medium from 1 mM stock solutions of the drugs in anhydrous DMSO. Controls were treated with an equivalent amount of solvent, diluted as above, to assess the absence of toxicity due to the solvent. After 72 h of incubation, 15 μL of 5 mg mL^−1 MTT dye (3-[4,5-dimethylthiazol-2-yl]-2,5-diphenyltetrazolium bromide, sigma) was added for 4 h at 37° C. Media was removed and the monolayer suspended in 0.15 mL of DMSO, after which the absorbance at 570 nm was measured using a microplate reader. The control value corresponding to untreated cells was defined as 100% and the viability of treated samples was expressed as a percentage of the control.
A general note: Tetrazolium assays rely on reduction of a dye to a coloured formazan, in cell work by metabolically active cells.

Each structure is given as a SMILES string.

As to `CN(Cc1cnc2nc(N)nc(N)c2n1)c1ccc(C(=O)N[C@@H](CCC(=O)O)C(=O)O)cc1` [Methotrexate (MTX), Methotrexate, reference compound], the “fold less sensitive to methotrexate than parental cells” value with DU 145(MTX) cells is listed as “at least 250 fold”. Further, the “DU-145-MTX (% cell survival)” value amounted to 82% in assay [1] (100 nM test compound), 84% in assay [1] (1 μM test compound) and 83% in assay [1] (10 μM test compound).
